Each molecule was assayed against T1, NR1/NR2A (Homo sapiens, UniProt Q05586+Q12879) (assay: FDSS Ca2+ influx inhibition assay in HEK293 cells expressing NR1/NR2A). Details: 3 μM glutamate, 3 μM glycine, 1 mM Ca2+, Ca2+ influx inhibition relative to MK801, read-out: NR2A IC50.
T1 construct: host or cells: HEK293 (tetracycline-inducible NR2A expression)
Type: cell-based
Description: Cell Culture and plating: HEK293 cells expressing NR1/NR2A (Chantest, Cleveland, Ohio) were grown to 70-80% confluency as an adherent monolayer in standard tissue culture flasks at 37° C., 5% CO2 per supplier's instructions.
After induction, cell culture medium was removed and cells were rinsed once with Ca^2+ and Mg^2+-free Dulbecco's phosphate buffered saline. Cells were then removed from the flask using TrypLE™ Express (Life Technologies) according to the manufacturer's instructions and collected to 50 ml centrifuge tubes. Following two washes in Ca^27 Mg^2′-free HBSS with 20 mM HEPES (HHnoCa), cells were counted and viability assessed using trypan blue. To load cells with Ca^2′-sensitive dye, they were resuspended in fluo-8 plus Component B (AAT Bioquest Products) diluted in HHnoCa and incubated 15 minutes at 37° C., followed by 30 minutes at room temp (in dark). Cells were then washed and resuspended in HHnoCa to remove extracellular dye and plated in 384-well plates (Falcon, uncoated) at 20,000-30,000 cells/well in a final volume of 25 μL/well.
FDSS Assay: To each well of the plate, 10 μLtest compound, control (MK801) or HHnoCa buffer was added to a final concentration of 10 μM with a final concentration of DMSO of 0.1%. Following 10 minutes pre-incubation in the dark, plates are loaded onto the Hamamatsu FDSS 6000. After collecting baseline fluorescence images, 3 μM glutamate, 3 μM glycine, and 1 mM Ca^2+ in HHnoCa buffer is added to each well, and Ca^2+ is recorded for 3 minutes. Data were processed by computing ratio of fluorescence at the end of data collection to baseline fluorescence to assess degree of Ca^2+ influx inhibition relative to that observed in MK801.

T1 sequence (Q12879 23-1464, other chains not shown): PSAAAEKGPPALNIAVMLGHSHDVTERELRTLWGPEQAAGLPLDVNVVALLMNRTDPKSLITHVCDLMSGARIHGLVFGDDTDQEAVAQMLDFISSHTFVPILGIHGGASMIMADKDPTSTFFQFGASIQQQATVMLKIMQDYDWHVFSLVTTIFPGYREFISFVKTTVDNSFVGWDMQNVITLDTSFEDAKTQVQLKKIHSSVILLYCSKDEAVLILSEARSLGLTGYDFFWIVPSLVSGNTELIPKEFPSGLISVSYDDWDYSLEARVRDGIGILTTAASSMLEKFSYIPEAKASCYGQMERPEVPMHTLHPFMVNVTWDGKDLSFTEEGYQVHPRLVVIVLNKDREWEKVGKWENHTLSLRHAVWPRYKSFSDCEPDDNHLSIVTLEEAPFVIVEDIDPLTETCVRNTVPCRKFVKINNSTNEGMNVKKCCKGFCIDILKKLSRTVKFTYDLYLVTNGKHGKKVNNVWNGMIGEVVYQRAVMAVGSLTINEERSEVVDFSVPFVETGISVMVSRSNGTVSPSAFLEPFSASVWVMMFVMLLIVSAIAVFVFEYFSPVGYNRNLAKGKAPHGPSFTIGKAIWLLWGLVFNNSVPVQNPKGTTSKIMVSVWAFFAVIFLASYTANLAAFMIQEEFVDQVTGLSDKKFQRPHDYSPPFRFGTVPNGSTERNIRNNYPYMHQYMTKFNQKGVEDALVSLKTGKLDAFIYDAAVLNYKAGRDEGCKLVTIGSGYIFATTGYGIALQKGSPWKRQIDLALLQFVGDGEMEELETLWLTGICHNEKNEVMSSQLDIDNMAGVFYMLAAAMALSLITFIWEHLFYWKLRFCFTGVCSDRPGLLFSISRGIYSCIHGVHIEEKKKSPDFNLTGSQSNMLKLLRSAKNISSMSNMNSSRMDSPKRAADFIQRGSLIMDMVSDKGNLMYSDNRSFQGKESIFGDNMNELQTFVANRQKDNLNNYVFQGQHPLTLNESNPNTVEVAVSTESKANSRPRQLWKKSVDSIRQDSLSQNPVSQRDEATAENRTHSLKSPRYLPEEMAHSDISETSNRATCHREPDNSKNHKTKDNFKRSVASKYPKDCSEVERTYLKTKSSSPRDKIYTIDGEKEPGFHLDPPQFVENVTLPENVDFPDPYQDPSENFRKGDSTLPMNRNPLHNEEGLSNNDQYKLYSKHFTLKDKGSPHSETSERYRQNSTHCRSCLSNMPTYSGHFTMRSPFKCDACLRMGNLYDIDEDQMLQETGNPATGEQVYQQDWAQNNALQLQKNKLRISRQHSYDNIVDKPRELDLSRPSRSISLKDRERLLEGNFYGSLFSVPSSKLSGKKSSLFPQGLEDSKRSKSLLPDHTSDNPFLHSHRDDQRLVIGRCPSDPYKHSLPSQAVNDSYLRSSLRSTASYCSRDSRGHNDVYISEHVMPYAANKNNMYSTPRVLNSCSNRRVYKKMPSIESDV

SMILES	IC50 [nM]
C[C@@H](NC(=O)c1cnc(CNS(=O)(=O)c2ccc(F)c(Cl)c2)cn1)c1cncs1 [5-(3-chloro-4-fluorobenzenesulfon-amidomethyl)-N-[(1R)-1-(1,3-thiazol-5-yl)ethyl]pyrazine-2-carboxamide]	10500
Cc1ncc(CNC(=O)c2cnc(CNS(=O)(=O)c3ccc(F)c(Cl)c3)c(C(F)(F)F)n2)s1 [5-(3-chloro-4-fluorobenzenesulfon-amidomethyl)-N-[(2-methyl-1,3-thiazol-5-yl)methyl]-6-(trifluoromethyl)pyrazine-2-carboxamide]	169
Cc1csc(CNC(=O)c2cnc(CNS(=O)(=O)c3ccc(F)c(Cl)c3)cn2)n1 [5-(3-chloro-4-fluorobenzenesulfon-amidomethyl)-N-[(4-methyl-1,3-thiazol-2-yl)methyl]pyrazine-2-carboxamide]	≥ 10000
Cc1nnc(CNC(=O)c2cnc(CNS(=O)(=O)c3ccc(F)c(Cl)c3)cn2)o1 [5-(3-chloro-4-fluorobenzenesulfon-amidomethyl)-N-[(5-methyl-1,3,4-oxadiazol-2-yl)methyl]pyrazine-2-carboxamide]	2430
Cc1nnc(CNC(=O)c2cnc(CNS(=O)(=O)c3ccc(F)c(Cl)c3)cn2)s1 [5-(3-chloro-4-fluorobenzenesulfon-amidomethyl)-N-[(5-methyl-1,3,4-thiadiazol-2-yl)methyl]pyrazine-2-carboxamide]	624
Cc1cnc(CNC(=O)c2cnc(CNS(=O)(=O)c3ccc(F)c(Cl)c3)cn2)cn1 [5-(3-chloro-4-fluorobenzenesulfon-amidomethyl)-N-[(5-methylpyrazin-2-yl)methyl]pyrazine-2-carboxamide]	1250
Cc1ncc(CNC(=O)c2cnc(CNS(=O)(=O)c3cccc(Cl)c3)c(C)n2)s1 [5-(3-chlorobenzenesulfon-amidomethyl)-6-methyl-N-[(2-methyl-1,3-thiazol-5-yl)methyl]pyrazine-2-carboxamide]	39.5
Cc1ncc(CNC(=O)c2cnc(CNS(=O)(=O)c3cccc(Cl)c3)cn2)s1 [5-(3-chlorobenzenesulfon-amidomethyl)-N-[(2-methyl-1,3-thiazol-5-yl)methyl]pyrazine-2-carboxamide]	839
Cc1ncc(CNC(=O)c2ccc(CNS(=O)(=O)c3cccc(Cl)c3)cn2)s1 [5-(3-chlorobenzenesulfon-amidomethyl)-N-[(2-methyl-1,3-thiazol-5-yl)methyl]pyridine-2-carboxamide]	1040
Cc1ncc(CNC(=O)c2cnc(CNS(=O)(=O)c3ccc(Cl)c(F)c3)c(C)n2)s1 [5-(4-chloro-3-fluorobenzenesulfon-amidomethyl)-6-methyl-N-[(2-methyl-1,3-thiazol-5-yl)methyl]pyrazine-2-carboxamide]	1020
Cc1ncc(CNC(=O)c2ccc(CNS(=O)(=O)c3ccc(Cl)c(F)c3)cn2)s1 [5-(4-chloro-3-fluorobenzenesulfon-amidomethyl)-N-[(2-methyl-1,3-thiazol-5-yl)methyl]pyridine-2-carboxamide]	7450
Cc1ncc(CNC(=O)c2cnc(CNS(=O)(=O)c3ccc(F)cc3)c(C)n2)s1 [5-(4-fluorobenzenesulfon-amidomethyl)-6-methyl-N-[(2-methyl-1,3-thiazol-5-yl)methyl]pyrazine-2-carboxamide]	137
Cc1ncc(CNC(=O)c2cnc(CNS(=O)(=O)c3ccc(F)cc3)cn2)s1 [5-(4-fluorobenzenesulfon-amidomethyl)-N-[(2-methyl-1,3-thiazol-5-yl)methyl]pyrazine-2-carboxamide]	5510
Cc1ncc(CNC(=O)c2ccc(CNS(=O)(=O)c3ccc(F)cc3)cn2)s1 [5-(4-fluorobenzenesulfon-amidomethyl)-N-[(2-methyl-1,3-thiazol-5-yl)methyl]pyridine-2-carboxamide]	2840
Cc1ncc(CNC(=O)c2cnc(CNS(=O)(=O)c3cc(Cl)ccc3F)c(C)n2)s1 [5-(5-chloro-2-fluorobenzenesulfon-amidomethyl)-6-methyl-N-[(2-methyl-1,3-thiazol-5-yl)methyl]pyrazine-2-carboxamide]	8060
C[C@@H](NC(=O)c1ccc(CNS(=O)(=O)c2ccc(F)c(Cl)c2)nc1)c1cncs1 [6-(3-chloro-4-fluorobenzenesulfon-amidomethyl)-N-[(1R)-1-(1,3-thiazol-5-yl)ethyl]pyridine-3-carboxamide]	≥ 10000
Cc1ncc(CNC(=O)c2cnc(CNS(=O)(=O)c3cccs3)cn2)s1 [N-[(2-methyl-1,3-thiazol-5-yl)methyl]-5-(thiophene-2-sulfonamidomethyl) pyrazine-2-carboxamide]	3770
Cc1ncc(CNC(=O)c2ccc(CNS(=O)(=O)c3cccs3)cn2)s1 [N-[(2-methyl-1,3-thiazol-5-yl)methyl]-5-(thiophene-2-sulfonamidomethyl) pyridine-2-carboxamide]	4020

Results, then the molecule that gave them:

IC50 [nM]	SMILES
850	COc1cc(CNC(=O)c2cnc(CNS(=O)(=O)c3ccc(F)c(Cl)c3)cn2)ccn1 [5-(3-chloro-4-fluorobenzenesulfon-amidomethyl)-N-[(2-methoxypyridin-4-yl)methyl]pyrazine-2-carboxamide]
3020	COc1cc(CNC(=O)c2ccc(CNS(=O)(=O)c3ccc(F)c(Cl)c3)cn2)ccn1 [5-(3-chloro-4-fluorobenzenesulfon-amidomethyl)-N-[(2-methoxypyridin-4-yl)methyl]pyridine-2-carboxamide]
204	Cc1ncc(CNC(=O)c2ccc(CNS(=O)(=O)c3ccc(F)c(Cl)c3)cn2)s1 [5-(3-chloro-4-fluorobenzenesulfon-amidomethyl)-N-[(2-methyl-1,3-thiazol-5-yl)methyl]pyridine-2-carboxamide]
3370	COc1cccc(CNC(=O)c2ccc(CNS(=O)(=O)c3ccc(F)c(Cl)c3)cn2)c1 [5-(3-chloro-4-fluorobenzenesulfon-amidomethyl)-N-[(3-methoxyphenyl)methyl] pyridine-2-carboxamide]
108	Cc1ccncc1CNC(=O)c1cnc(CNS(=O)(=O)c2ccc(F)c(Cl)c2)cn1 [5-(3-chloro-4-fluorobenzenesulfon-amidomethyl)-N-[(4-methylpyridin-3-yl)methyl]pyrazine-2-carboxamide]
187	Cc1ccncc1CNC(=O)c1ccc(CNS(=O)(=O)c2ccc(F)c(Cl)c2)cn1 [5-(3-chloro-4-fluorobenzenesulfon-amidomethyl)-N-[(4-methylpyridin-3-yl)methyl]pyridine-2-carboxamide]
1100	O=C(NCc1cncc(F)c1)c1cnc(CNS(=O)(=O)c2ccc(F)c(Cl)c2)cn1 [5-(3-chloro-4-fluorobenzenesulfon-amidomethyl)-N-[(5-fluoropyridin-3-yl)methyl]pyrazine-2-carboxamide]
2830	Cc1nnc(CNC(=O)c2ccc(CNS(=O)(=O)c3ccc(F)c(Cl)c3)cn2)o1 [5-(3-chloro-4-fluorobenzenesulfon-amidomethyl)-N-[(5-methyl-1,3,4-oxadiazol-2-yl)methyl]pyridine-2-carboxamide]
1020	Cc1nnc(CNC(=O)c2ccc(CNS(=O)(=O)c3ccc(F)c(Cl)c3)cn2)s1 [5-(3-chloro-4-fluorobenzenesulfon-amidomethyl)-N-[(5-methyl-1,3,4-thiadiazol-2-yl)methyl]pyridine-2-carboxamide]
2000	COc1ccc(CNC(=O)c2ccc(CNS(=O)(=O)c3ccc(F)c(Cl)c3)cn2)cn1 [5-(3-chloro-4-fluorobenzenesulfon-amidomethyl)-N-[(6-methoxypyridin-3-yl)methyl]pyridine-2-carboxamide]
790	O=C(NCc1cnccn1)c1ccc(CNS(=O)(=O)c2ccc(F)c(Cl)c2)nc1 [6-(3-chloro-4-fluorobenzenesulfon-amidomethyl)-N-(pyrazin-2-ylmethyl)pyridine-3-carboxamide]
11000	O=C(NCc1cccnc1)c1ccc(CNS(=O)(=O)c2ccc(F)c(Cl)c2)nc1 [6-(3-chloro-4-fluorobenzenesulfon-amidomethyl)-N-(pyridin-3-ylmethyl)pyridine-3-carboxamide]
9750	Cc1ccncc1CNC(=O)c1ccc(CNS(=O)(=O)c2ccc(F)c(Cl)c2)nc1 [6-(3-chloro-4-fluorobenzenesulfon-amidomethyl)-N-[(4-methylpyridin-3-yl)methyl]pyridine-3-carboxamide]
630	Cc1cnc(CNC(=O)c2ccc(CNS(=O)(=O)c3ccc(F)c(Cl)c3)nc2)cn1 [6-(3-chloro-4-fluorobenzenesulfon-amidomethyl)-N-[(5-methylpyrazin-2-yl)methyl]pyridine-3-carboxamide]
108	Cn1ccnc1CNC(=O)c1ccc(CNS(=O)(=O)c2ccc(F)c(Cl)c2)nc1 [6-(3-chloro-4-fluorobenzenesulfon-amidomethyl)-N-[(l-methyl-1H-imidazol-2-yl)methyl]pyridine-3-carboxamide]

Same assay, conditions: binned NR2A inhibition concentration, read-out: Binned Activity

SMILES	IC50 [nM]
Cc1csc(CNC(=O)c2cnc(CNS(=O)(=O)c3ccc(F)c(Cl)c3)cn2)n1 [5-(3-chloro-4-fluorobenzenesulfon-amidomethyl)-N-[(4-methyl-1,3-thiazol-2-yl)methyl]pyrazine-2-carboxamide]	> 10000
C[C@@H](NC(=O)c1ccc(CNS(=O)(=O)c2ccc(F)c(Cl)c2)nc1)c1cncs1 [6-(3-chloro-4-fluorobenzenesulfon-amidomethyl)-N-[(1R)-1-(1,3-thiazol-5-yl)ethyl]pyridine-3-carboxamide]	> 10000

From patent US20150141433A1, “N-ARYLMETHYL SULFONAMIDE NEGATIVE MODULATORS OF NR2A” (Mnemosyne Pharmaceuticals, Inc., priority 2013, published 2015)
